From PMC3368886, “ATPase Cycle and DNA Unwinding Kinetics of RecG Helicase” (PLoS ONE, 2012)
pKd, pKi: −log10 of the molar value.

Columns and labels:
[1] = molecular target: T1, RecG (Thermotoga maritima, UniProt Q9WY48); experiment: Steady-state ATPase rate measurements with phosphate biosensor MDCC-PBP; assay type: biochemical; conditions: for pKi: 10 µM ATP, varying inhibitor; for tightness of binding (competitive inhibition): result in words
T1 construct: made in house
T1 sequence (Q9WY48 1-780): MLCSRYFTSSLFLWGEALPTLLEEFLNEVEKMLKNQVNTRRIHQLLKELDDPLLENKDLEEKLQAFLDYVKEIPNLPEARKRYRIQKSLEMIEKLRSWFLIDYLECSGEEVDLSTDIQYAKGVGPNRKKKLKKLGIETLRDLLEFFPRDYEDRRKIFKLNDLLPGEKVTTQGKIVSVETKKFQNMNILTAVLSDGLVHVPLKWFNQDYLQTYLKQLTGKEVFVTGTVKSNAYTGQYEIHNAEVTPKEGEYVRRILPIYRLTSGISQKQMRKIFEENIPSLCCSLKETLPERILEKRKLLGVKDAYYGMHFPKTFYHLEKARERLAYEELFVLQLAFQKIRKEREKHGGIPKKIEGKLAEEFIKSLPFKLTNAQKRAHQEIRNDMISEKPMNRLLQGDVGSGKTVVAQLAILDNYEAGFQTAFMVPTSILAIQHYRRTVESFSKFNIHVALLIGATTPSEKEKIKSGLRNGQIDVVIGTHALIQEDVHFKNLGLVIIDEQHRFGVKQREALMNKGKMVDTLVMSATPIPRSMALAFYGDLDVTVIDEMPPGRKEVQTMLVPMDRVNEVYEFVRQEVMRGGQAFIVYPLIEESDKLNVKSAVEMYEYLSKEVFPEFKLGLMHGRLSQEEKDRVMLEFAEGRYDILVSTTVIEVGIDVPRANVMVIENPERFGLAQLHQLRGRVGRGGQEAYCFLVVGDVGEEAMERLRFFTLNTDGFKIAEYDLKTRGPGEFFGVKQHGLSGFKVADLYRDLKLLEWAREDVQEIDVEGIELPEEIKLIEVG
Description: Steady-state measurements were made to gain an overall assessment of the reaction and the affinities of various nucleotides before investigating the individual steps in the ATPase cycle. A two-strand DNA junction, which contains two 20-bp regions of complementary and non-complementary sequences (A40:B40 Figure 1 and Table S1), was used in all these measurements. This forms a Y-shape structure and RecG translocates one single-stranded arm, but then remains bound to the end of the junction still hydrolyzing ATP [10].
All reactions with RecG and DNA were done at 20°C in a buffer containing 50 mM Tris⋅acetate (pH 8.0), 30 mM potassium acetate, 3 mM magnesium acetate and 1 mM DTT. ATPase measurements using MDCC-PBP were taken in the presence of a Pi mop, as described above. Steady-state ATPase measurements were taken in a solution (60 µl) at 20°C, containing 10 nM RecG, 500 nM DNA junction (A40∶B40, see Table S1) and 10 µM MDCC-PBP with varying nucleotide concentrations as substrate or inhibitor [23].

[2] = molecular target: T1, RecG; experiment: Titrations of RecG into fluorescent nucleotides in the absence of DNA; assay type: binding
Method: The two phases of this fluorescence increase with excess RecG⋅DNA would therefore relate to formation of bound mantATP (1.5-fold intensity increase relative to free nucleotide) and bound mantADP (4.9-fold). This interpretation was supported by titrations of RecG into the fluorescent nucleotides in the absence of DNA.
Steady-state fluorescence was measured using a Cary Eclipse fluorimeter (Varian) with a xenon light source. Absorbance spectroscopy was performed using a Beckman DU640 spectrophotometer.

[3] = molecular target: T2, RecG⋅DNA(A40:B40) (Thermotoga maritima, UniProt Q9WY48); experiment: Stopped-flow mant fluorescence: mant nucleotide binding to RecG⋅DNA, pseudo-first-order
T2 construct: made in house
T2 sequence (Q9WY48 1-780): T1 sequence (Q9WY48 1-780)
Method: MantATP binding to RecG⋅DNA(A40:B40) was measured under pseudo-first-order conditions, that is mantATP in large excess over the protein. Using the stopped-flow apparatus, several concentrations of mantATP were rapidly mixed with RecG⋅DNA and fluorescence followed with time. Each trace was fitted by a single exponential (Figure 3A) and the concentration dependence of the observed rate constants were fit well by a hyperbola (Figure 3B). […] As mantATP is also hydrolyzed, the rate of the forward reaction needs to be included, in this case limited by the cleavage step 2, as described later. The fit gives 1/K 1a as 24 (±4) µM, k +1b + k −1b + k +2 as 26.1 (±1.8) s^−1 and the intercept gives k −1b + k +2 as <1 s^−1. Given that k +2 is 0.2 s^–1 (see below), k −1b is <0.8 s^−1. Potentially, an alternative explanation for such a hyperbolic relationship could be preferential binding of either the 2′- or 3′-isomer of mantATP and then isomerization of the non-favored isomer. However, the observed rates in these measurements were several orders of magnitude faster than the likely isomerization rate. In order to assess whether the two isomers of mantATP and their interconversion are factors in any fluorescence traces for mantATP, an equivalent measurement was made using 3′-mant-2′-deoxyATP.
Figure 3 MantATP binding to RecG⋅DNA. MantATP at the micromolar concentrations shown was mixed in the stopped flow apparatus with 0.5 µM RecG and 2.5 µM DNA Junction (A40:B40) at 20°C in the buffer described in materials and methods. Individual traces (offset from each other) were fitted to single exponentials and the dependence of the rate constants on concentration was then fitted by a hyperbola. The points shown are averages of at least 3 measurements. The fit gives 1/K 1a as 24 (±4) µM and k +1b + k− 1b + k +2 as 26.1 (±1.8) s^−1 and the intercept was <1 s^–1 (Scheme in Figure 2B).
MantADP binding to RecG⋅DNA complex was measured under pseudo-first order conditions by stopped-flow fluorescence.
Figure 5 MantADP binding kinetics to RecG⋅DNA. MantADP at various concentrations was mixed in the stopped flow apparatus with 0.5 µM RecG and 2.5 µM DNA (A40:B40) under the conditions of Figure 4. Traces (not shown) were fitted by single exponentials. The rate constants are shown as a function of concentration and the best linear fit, gives a slope of 1.1 (±0.4) µM^−1s^−1 and an intercept of <1 s^−1.
(§1) Stopped-flow experiments were performed in a HiTech SF61DX2 apparatus (TgK Scientific Ltd, Bradford-on-Avon, UK) with a mercury-xenon light source and HiTech KinetAsyst 3 or Kinetic Studio 1 software. For MDCC-PBP fluorescence, the excitation wavelength used was 436 nm and a 455 nm cut-off filter (Schott glass) used to collect emitted light. The signal was calibrated using known concentrations of Pi. The solutions contained the Pi mop, to minimize phosphate contamination and comprising 0.01 unit ml^−1 bacterial purine nucleoside phosphorylase and 200 µM 7-methylguanosine. For mant fluorescence, 366 nm was used to excite and a 400 nm cut-off filter (Schott glass) used to collect light. Measurements of Cy3 fluorescence used 547 nm excitation and a 570 nm cut-off filter. In experiments described, the quoted concentrations are those in the mixing chamber, except where stated. Data were fitted to theoretical curves using the HiTech software or Grafit.

[4] = molecular target: T2, RecG⋅DNA(A40:B40); experiment: Single turnover mant fluorescence, excess RecG⋅DNA over mantATP; assay type: biochemical; conditions: excess RecG⋅DNA(A40:B40)
Method: Extra information relating to changes in a single ATPase cycle can be obtained by mixing excess RecG⋅DNA(A40:B40) with mantATP (Figure 4A). […] The first change in fluorescence is presumably due to binding. After fitting to a double exponential, the observed rate constant for the initial change was linearly dependent on RecG concentration over the small range possible (0.5 µM –2.5 µM), limited by protein precipitation at higher concentrations. Due to the low concentrations, a hyperbolic dependence would not be observed. The observed rate constant of the second increase in fluorescence, 0.22 (±0.05) s^−1 (Figure 4A), was independent of RecG concentration. This second phase is likely to be due to the cleavage step, leading to the formation of bound mantADP.
Figure 4 Kinetic measurement of mantATP with excess of RecG and DNA: binding, hydrolysis and Pi release. The concentrations for all experiments were 0.5 µM mantATP, 2.5 µM RecG, 5 µM DNA (A40:B40) and 10 µM MDCC-PBP (for Pi measurement). All measurements were carried out at 20°C in the buffer described in Materials and Methods. (A) Time course of mant fluorescence (solid line), mantADP formation (circles) and Pi release (dashed line), measured as described in materials and methods. […] (B) Simulation of these time courses, based upon a global model for a single turnover of mantATP as described in the text. (C) The time course of mant fluorescence upon mixing 0.5 µM mantATP and 2.5 µM RecG with 5 µM DNA junction (A40:B40) after a first mixing of 5 µM RecG and 1 µM mantATP and aging for 1 s.
as §1

[5] = molecular target: T1, RecG; experiment: Phosphate-water oxygen exchange during hydrolysis; assay type: biochemical; conditions: DNA present (A40∶B40), γ-18O3 nucleotide, 25°C
Description: In order to get information about the reverse of cleavage step 2 (scheme in Figure 2A), phosphate-water oxygen exchange measurements were done using (γ-^18O3)mantATP. Intermediate exchange can occur between terminal oxygens of the nucleotide and water during hydrolysis, giving information about the value of k +3 /k −2, as previously described. In this case, (γ-^18O3)mantATP was used as substrate and partial hydrolysis occurred in the presence of RecG⋅DNA, as described in the materials and methods section. The Pi had very similar distribution of oxygen-18 as with (γ-^18O3)mantATP, consistent with essentially little reversal of the cleavage step (k +3 /k −2≥9). This is consistent with a rapid release of Pi.
For intermediate exchange during ATP hydrolysis, 0.5 µM RecG and 1 mM (γ-^18O3)ATP or (γ-^18O3)mantATP were incubated for 10 min (+1 µM DNA A40∶B40, Table S1) or 20 min (- DNA) at 25°C in a volume of 100 µl in the buffer described below. Pi was analyzed for distribution of different ^18O-labeled species on a mass spectrometer as described previously, [37] except that during purification, the ^18O-labeled Pi was detected by MDCC-PBP, rather than radioactive tracers.
Supplementary file pone.0038270.s005.pdf: Table S2 Oxygen exchange during ATP or mantATP hydrolysis by RecG: distributions of oxygen-18 in the Pi product. Experiments were performed as described in Materials and Methods. The data were corrected for isotopic enrichment of the starting nucleotide, 93% for (γ-^18O3)mantATP and 98% for (γ-^18O3) ATP. […] Each distribution is the average of three mass spectral assays. Thus the distributions are for the product Pi as though the starting enrichment was 100%. In all cases there was very little oxygen exchange as shown by the large peak of (^18O3)Pi, in which all three γ-oxygens of ATP are retained. The distributions were then used to compute the ratio of rate constants for Pi release (k +3) and on-enzyme ATP resynthesis (k −2) as in Figure 2 [14], [37].

[6] = 500 nM DNA junction (A40:B40), 20°C
[7] = 20°C, 10 nM RecG, 500 nM DNA junction (A40:B40)

**Q.** With `Nc1ncnc2c1ncn2[C@@H]1O[C@H](COP(=O)(O)OP(=O)(O)NP(=O)(O)O)[C@@H](O)[C@H]1O` [AMPPNP] as the molecule, how does the pKi [1, 6] read?
**A.** 4.36

**Q.** What about the “tightness of binding (competitive inhibition)” value [1] of the same molecule?
**A.** bound weakly

**Q.** `Nc1ncnc2c1ncn2[C@@H]1O[C@H](CO[P@](=O)(O)O[P@](=O)(O)O[P@@](=O)(O)S)[C@@H](O)[C@H]1O` [ATPγS] was tested. Which pKi [1, 6] did it give?
**A.** 6.05

**Q.** And the “tightness of binding (competitive inhibition)” value [1]?
**A.** bound tightly

**Q.** And the rate of hydrolysis ([1]; slowly hydrolyzed analogue)?
**A.** 0.1 s⁻¹

**Q.** How did the pKi [1, 6] turn out when `CNc1ccccc1C(=O)O[C@H]1C[C@H](n2cnc3c(N)ncnc32)O[C@@H]1COP(=O)(O)OP(=O)(O)O` [Mant-deoxyADP] was run?
**A.** 7.00

**Q.** Which results are given for `CNc1ccccc1C(=O)O[C@H]1C[C@H](n2cnc3c(N)ncnc32)O[C@@H]1COP(=O)(O)OP(=O)(O)OP(=O)(O)O` [Mant-deoxyATP, 3′-mant-2′-deoxyATP]?
**A.** K m [1, 7]: 3.1 (±1.4) µM; k cat [1, 7]: 1.3 (±0.5) s^−1

**Q.** `CNc1ccccc1C(=O)O[C@H]1[C@@H](O)[C@H](n2cnc3c(N)ncnc32)O[C@@H]1COP(=O)(O)OP(=O)(O)O` [mantADP] was tested. Which “increase in fluorescence on titration with RecG” value [2] did it give?
**A.** 4.8 fold

**Q.** What about the pKi [1, 6] of the same molecule?
**A.** 7.52

**Q.** What about the “k +4 (mantADP dissociation rate constant, intercept)” value ([3]; 20°C, linear fit) of the same molecule?
**A.** < 1 s⁻¹

**Q.** And the pKd ([3]; mantADP with RecG⋅DNA, used as model assumption)?
**A.** > 7.30

**Q.** What about the “increase in fluorescence on binding to RecG⋅DNA” value ([3]; same conditions as hydrolysis and Pi release measurements) of the same molecule?
**A.** 4.5 fold

**Q.** What about the “fluorescence intensity increase of bound nucleotide relative to free nucleotide” value [4] of the same molecule?
**A.** 4.9 fold

**Q.** (γ-^18O3)mantATP was tested. Which “k +3 /k −2” value [5] did it give?
**A.** ≥ 9
